Measured values as given in US9296741B2, “Bromodomain inhibitors” (priority 2012, dated 2016).
Marks after values point to notes of the source that are not given here. Each block holds one molecule with its values, some of them ahead of it.

Assays:
RPMI-8226 = test: Proliferation panel assay, Multiple Myeloma RPMI-8226; assay type: cell-based; conditions: Homo sapiens, read-out: Cellular Proliferation EC50
[1] = test system: Ramos human cancer cell xenograft; test: Xenograft efficacy study, Ramos; assay type: in vivo, mouse; conditions: 3.125 mg/kg/day, PO, BID (5 d on, 3 d off)x2, vehicle F
[2] = Human liver microsome stability assay; assay type: in vitro ADME; conditions: both sexes, human, microsomes, pH 7.4
H460 = test: Proliferation panel assay, NSCLC H460; assay type: cell-based; conditions: Homo sapiens, NCI-H460, read-out: Cellular Proliferation EC50
FaDu = test: Proliferation panel assay, Head & Neck FaDu; assay type: cell-based; conditions: Homo sapiens, read-out: Cellular Proliferation EC50
[3] = test system: LPS induced IL-6 production; test: LPS (lipopolysaccharide) induced IL-6 production mouse assay; assay type: in vivo; conditions: Mus musculus, read-out: Inhibition of LPS induced IL-6 production in Mice, % inhibition at 3 mg/kg; 3 mg/kg oral, 1 h before LPS; serum IL-6 2 h after LPS
GEO = test: Proliferation panel assay, Colon GEO; assay type: cell-based; conditions: read-out: Cellular Proliferation EC50
Ramos = test: Proliferation panel assay, NHL Ramos; assay type: cell-based; conditions: Homo sapiens, read-out: Cellular Proliferation EC50
D54MG = test: Proliferation panel assay, Glioblastoma D54MG; assay type: cell-based; conditions: read-out: Cellular Proliferation EC50
DLD-1 = test: Proliferation panel assay, Colon DLD-1; assay type: cell-based; conditions: Homo sapiens, read-out: Cellular Proliferation EC50
HPAC = test: Proliferation panel assay, Pancreas HPAC; assay type: cell-based; conditions: Homo sapiens, read-out: Cellular Proliferation EC50
EJ-1 = test: Proliferation panel assay, Bladder EJ-1; assay type: cell-based; conditions: EJ1, read-out: Cellular Proliferation EC50
[4] = target: human BRD4 first bromodomain (BDI_K57-E168) (Homo sapiens (Human), UniProt O60885); test: TR-FRET bromodomain binding assay, BRD4 first bromodomain
HepG2 = test: Proliferation panel assay, Hepatocellular HepG2; assay type: cell-based; conditions: Homo sapiens, read-out: Cellular Proliferation EC50
H1299 = test: Proliferation panel assay, NSCLC H1299; assay type: cell-based; conditions: Homo sapiens, NCI-H1299, read-out: Cellular Proliferation EC50
H1975 = test: Proliferation panel assay, NSCLC H1975; assay type: cell-based; conditions: Homo sapiens, NCI-H1975, read-out: Cellular Proliferation EC50
[5] = test system: MX-1 human breast cancer xenograft tumors; test: Xenograft tumor growth inhibition assay, MX-1; assay type: in vivo, mouse; conditions: MX-1, PO, vehicle F
SK-LMS-1 = test: Proliferation panel assay, Sarcoma SK-LMS-1; assay type: cell-based; conditions: Homo sapiens, read-out: Cellular Proliferation EC50
Ly18 = test: Proliferation panel assay, NHL Ly18; assay type: cell-based; conditions: read-out: Cellular Proliferation EC50
SKM1 = test: Proliferation panel assay, AML SKM1; assay type: cell-based; conditions: Homo sapiens, SKM-1, read-out: Cellular Proliferation EC50
NCI-H929 = test: Proliferation panel assay, Multiple Myeloma NCI-H929; assay type: cell-based; conditions: Homo sapiens, read-out: Cellular Proliferation EC50
BxPC3FP5 = test: Proliferation panel assay, Pancreas BxPC3FP5; assay type: cell-based; conditions: read-out: Cellular Proliferation EC50
786-0 = test: Proliferation panel assay, RCC 786-0; assay type: cell-based; conditions: Homo sapiens, read-out: Cellular Proliferation EC50
A-375 = test: Proliferation panel assay, Melanoma A-375; assay type: cell-based; conditions: Homo sapiens, read-out: Cellular Proliferation EC50
Raji = test: Proliferation panel assay, AML Raji; assay type: cell-based; conditions: Homo sapiens, Burkitt lymphoma, read-out: Cellular Proliferation EC50
[6] = Rat liver microsome stability assay; assay type: in vitro ADME; conditions: rat liver microsomes (male Sprague-Dawley), 0.5 μM test compound, 0.25 mg/mL microsomal protein, pH 7.4, 37° C.; read-out: Stability in rat liver microsomes (t1/2 in minutes)
[7] = test system: breast cancer cell line MX-1; test: MX-1 cell line proliferation assay; assay type: cell-based, human; conditions: Homo sapiens, MX1, 72 h; MX-1 cells, 3-day proliferation, Cell Titer Glo; read-out: Cellular proliferation: EC50
[8] = Mouse liver microsome stability assay; assay type: in vitro ADME; conditions: male, CD1, mouse, microsomes, pH 7.4
MDAMB453 = test: Proliferation panel assay, Breast MDAMB453; assay type: cell-based; conditions: Homo sapiens, MDA-MB-453, read-out: Cellular Proliferation EC50
[9] = target: human BRD4 second bromodomain (BDII_E352-M457) (Homo sapiens (Human), UniProt O60885); test: TR-FRET bromodomain binding assay, BRD4 second bromodomain
MDAMB231 = test: Proliferation panel assay, Breast MDAMB231; assay type: cell-based; conditions: Homo sapiens, MDA-MB-231, read-out: Cellular Proliferation EC50
PC3M = test: Proliferation panel assay, Prostate PC3M; assay type: cell-based; conditions: Homo sapiens, PC-3M, read-out: Cellular Proliferation EC50
OPM2 = test: Proliferation panel assay, Multiple Myeloma OPM2; assay type: cell-based; conditions: Homo sapiens, OPM-2, read-out: Cellular Proliferation EC50
[10] = test system: OPM-2 human multiple myeloma xenograft tumors; test: animal or person; conditions: Mus musculus, OPM-2, po, PO, vehicle A
[11] = test system: rat collagen induced arthritis (rCIA) paw swelling; conditions: rCIA, dosed at 3 mg/kg (positive control) once daily day 10-17
[12] = test system: SKM1 human cancer cell xenograft; test: Xenograft efficacy study, SKM1; assay type: in vivo, mouse
[13] = test system: MV4-11 human cancer cell xenograft; test: Xenograft efficacy study, MV4-11; assay type: in vivo, mouse; conditions: 250 mg/kg/day, IP, BID Q7Dx3, vehicle C
[14] = 12.5 mg/kg/day, BID (5 on, 3 off)x2
[15] = 25 mg/kg/day, BID (5 on, 3 off)x2
[16] = 3 mg/kg/day, QD (5 on, 3 off, 5 on)
[17] = 6 mg/kg/day, IV, Q7Dx3, vehicle C
[18] = 250 mg/kg/day, IP, BID Q7Dx3, vehicle C

EC50 (RPMI-8226): 11 nM
% removed from study [1]: 0%
half-life at 0.5 μM [2]: 59 min
EC50 (H460): 3.77 µM
EC50 (Ramos): 20 nM
EC50 (D54MG): 38 nM
EC50 (DLD-1): 200 nM
Ki [4]: 1.4 nM
EC50 (HepG2): 74.6 nM
EC50 (H1299): 60 nM
EC50 (H1975): 20 nM
EC50 (SK-LMS-1): 25 nM
EC50 (SKM1): 5 nM
EC50 (NCI-H929): 3 nM
EC50 (BxPC3FP5): 10 nM
EC50 (786-0): 11 nM
EC50 (A-375): 20 nM
EC50 (Raji): 6 nM
half-life at 0.5 μM [6]: 4 min
EC50 [7]: 16.4 nM
half-life at 0.5 μM [8]: 57 min
EC50 (MDAMB453): 20 nM
Ki [9]: 2 nM
EC50 (MDAMB231): 220 nM
EC50 (PC3M): 0.07 µM
EC50 (OPM2): 1 nM
Structure (SMILES): Cn1cc(-c2cc(NS(C)(=O)=O)ccc2Oc2ccccc2)c2cc[nH]c2c1=O [Example 4, N-[3-(6-methyl-7-oxo-6,7-dihydro-1H-pyrrolo[2,3-c]pyridin-4-yl)-4-phenoxyphenyl]methanesulfonamide]
% TGD (tumor growth delay) [1]: 27* %
% TGI (tumor growth inhibition) [1]: 19%
EC50 (FaDu): 20 nM
inhibition in vivo at 3 mg/kg [3]: 69%
EC50 (GEO): 80 nM
EC50 (HPAC): 50 nM
EC50 (EJ-1): 202 nM
% TGD (tumor growth delay) [5, 14]: 70*** %
% TGI (tumor growth inhibition) [5, 14]: 73*** %
% removed from study [5, 14]: 10%
% TGD (tumor growth delay) [5, 15]: 81*** %
% TGI (tumor growth inhibition) [5, 15]: 77*** %
% removed from study [5, 15]: 30%
EC50 (Ly18): 20 nM

half-life at 0.5 μM [2]: 32 min
Ki [4]: 2.5 nM
half-life at 0.5 μM [6]: > 120 min
EC50 [7]: 31.7 nM
half-life at 0.5 μM [8]: 59 min
Ki [9]: 2.2 nM
Structure (SMILES): Cn1cc(-c2cc(NS(C)(=O)=O)ccc2Oc2ccc(F)cc2F)c2cc[nH]c2c1=O [Example 27, N-[4-(2,4-difluorophenoxy)-3-(6-methyl-7-oxo-6,7-dihydro-1H-pyrrolo[2,3-c]pyridin-4-yl)phenyl]methanesulfonamide]
change in vivo at 1 mg/kg ([10]; read-out: % TGD (tumor growth delay), OPM-2, 1 mg/kg/day, QDx14): -2%
change in vivo at 3 mg/kg ([10]; read-out: % TGD (tumor growth delay), OPM-2, 3 mg/kg/day, QD (5 on, 3 off, 5 on)): 7%
inhibition in vivo at 1 mg/kg ([10]; read-out: % TGI (tumor growth inhibition), OPM-2, 1 mg/kg/day, QDx14): 59%
inhibition in vivo at 3 mg/kg ([10]; read-out: % TGI (tumor growth inhibition), OPM-2, 3 mg/kg/day, QD (5 on, 3 off, 5 on)): 67%
inhibition in vivo at 3 mg/kg [3]: 89%
% TGD (tumor growth delay) ([5]; 0.3 mg/kg/day, QD): 35%
% TGI (tumor growth inhibition) ([5]; 0.3 mg/kg/day, QD): 38** %
% removed from study ([5]; 0.3 mg/kg/day, QD): 0%
% TGD (tumor growth delay) ([5]; 1 mg/kg/day, QD): 13%
% TGI (tumor growth inhibition) ([5]; 1 mg/kg/day, QD): 57*** %
% removed from study ([5]; 1 mg/kg/day, QD): 0%
% TGI (tumor growth inhibition) [5, 16]: 69*** %
% removed from study [5, 16]: 0%

EC50 (RPMI-8226): 1400 nM
EC50 (H460): > 10 µM
EC50 (Ramos): 320 nM
EC50 (D54MG): 2300 nM
EC50 (DLD-1): 4970 nM
Ki [4]: 2.5 nM
EC50 (HepG2): 885 nM
EC50 (H1299): 2570 nM
EC50 (H1975): 1370 nM
EC50 (SK-LMS-1): 934 nM
EC50 (SKM1): 58 nM
EC50 (NCI-H929): 154 nM
EC50 (BxPC3FP5): 740 nM
EC50 (786-0): 884 nM
EC50 (A-375): 3610 nM
EC50 (Raji): 84 nM
EC50 [7]: 400 nM
EC50 (MDAMB453): 240 nM
Ki [9]: 1.8 nM
EC50 (MDAMB231): 1220 nM
EC50 (PC3M): 8.11 µM
EC50 (OPM2): 39 nM
Structure (SMILES): Cn1nc(-c2cc(NS(C)(=O)=O)ccc2Oc2ccccc2)c2cc(C(N)=O)[nH]c2c1=O [Example 78, 6-methyl-4-{5-[(methylsulfonyl)amino]-2-phenoxyphenyl}-7-oxo-6,7-dihydro-1H-pyrrolo[2,3-d]pyridazine-2-carboxamide]
EC50 (FaDu): 390 nM
EC50 (GEO): 1290 nM
EC50 (HPAC): 1190 nM
EC50 (EJ-1): 2090 nM
EC50 (Ly18): 420 nM

Structure (SMILES): C[C@]12C=CC(=O)C=C1CC[C@@H]1[C@@H]2[C@@H](O)C[C@@]2(C)[C@H]1CC[C@]2(O)C(=O)CO [Prednisolone, prednisolone, reference compound]
AUC of Paw Swelling, MEAN [11]: 0.67** ml-day

% removed from study [12, 17]: 0%
Structure (SMILES): Nc1ncn([C@@H]2O[C@H](CO)[C@@H](O)[C@H]2O)c(=O)n1 [azacitidine]
% TGD (tumor growth delay) [12, 17]: 98* %
% TGI (tumor growth inhibition) [12, 17]: 54** %

% removed from study [12, 18]: 0%
% removed from study [13]: 0%
Structure (SMILES): Nc1ccn([C@@H]2O[C@H](CO)[C@@H](O)[C@@H]2O)c(=O)n1 [cytarabine]
% TGD (tumor growth delay) [12, 18]: 30%
% TGI (tumor growth inhibition) [12, 18]: 20%
% TGD (tumor growth delay) [13]: 37*** %
% TGI (tumor growth inhibition) [13]: 47*** %
